The values that follow are results of earlier work, collected in PubChem BioAssay AID1259409 (Chemical Carcinogenesis Research Information System (CCRIS), 2018).

This series concerns rodent chemically induced tumor inhibition, incidence and multiplicity. Briefly: CCRIS tumor inhibitor studies. The note with it: Carcinogen: OCHRATOXIN A, 303-47-9, Route [Inhibitor]: ORAL, Species: RAT, Dose [Carcinogen]: 0.4 MG/KG BW 3X/WK FOR LIFETIME, Promoter: NONE.

Regarding `O=S(=O)(O)CCS`, the outcome runs as follows: (Dose [Inhibitor]: 1 G/L IN DRINKING WATER FOR LIFETIME (STUDY DURATION: LIFETIME), Strain/Sex: DA/FEMALE, Target Tissue: Type of Lesion: URETHRA: TRANSITIONAL CELL CARCINOMA) 0/40 (0%), 0/40 (0%), 0%, not significant; (Dose [Inhibitor]: 1 G/L IN DRINKING WATER FOR LIFETIME (STUDY DURATION: LIFETIME), Strain/Sex: DA/FEMALE, Target Tissue: Type of Lesion: URINARY BLADDER: TRANSITIONAL CELL CARCINOMA) 0/40 (0%), 0/40 (0%), 0%, not significant; (Dose [Inhibitor]: 1 G/L IN DRINKING WATER FOR LIFETIME (STUDY DURATION: LIFETIME), Strain/Sex: DA/MALE, Target Tissue: Type of Lesion: URETHRA: TRANSITIONAL CELL CARCINOMA) 0/20 (0%), 0/20 (0%), 0%, not significant; (Dose [Inhibitor]: 1 G/L IN DRINKING WATER FOR LIFETIME (STUDY DURATION: LIFETIME), Strain/Sex: DA/MALE, Target Tissue: Type of Lesion: URINARY BLADDER: TRANSITIONAL CELL PAPILLOMA) 0/20 (0%), 0/20 (0%), 0%, not significant; (Dose [Inhibitor]: 1 G/L IN DRINKING WATER FOR LIFETIME (STUDY DURATION: LIFETIME), Strain/Sex: LEWIS/FEMALE, Target Tissue: Type of Lesion: KIDNEY: TUBULAR CELL ADENOMA) 0/20 (0%), 0/20 (0%), 0%, not significant; (Dose [Inhibitor]: 1 G/L IN DRINKING WATER FOR LIFETIME (STUDY DURATION: LIFETIME), Strain/Sex: LEWIS/FEMALE, Target Tissue: Type of Lesion: URETHRA: TRANSITIONAL CELL CARCINOMA) 0/20 (0%), 0/20 (0%), 0%, not significant. In addition, the outcome runs as follows: (Dose [Inhibitor]: 1 G/L IN DRINKING WATER FOR LIFETIME (STUDY DURATION: LIFETIME), Strain/Sex: LEWIS/MALE, Target Tissue: Type of Lesion: KIDNEY: TUBULAR CELL ADENOMA) 0/20 (0%), 0/20 (0%), 0%, not significant; (Dose [Inhibitor]: 1 G/L IN DRINKING WATER FOR LIFETIME (STUDY DURATION: LIFETIME), Strain/Sex: LEWIS/MALE, Target Tissue: Type of Lesion: URETHRA: TRANSITIONAL CELL CARCINOMA) 0/20 (0%), 0/20 (0%), 0%, not significant; (Dose [Inhibitor]: 1 G/L IN DRINKING WATER FOR LIFETIME (STUDY DURATION: LIFETIME), Strain/Sex: LEWIS/MALE, Target Tissue: Type of Lesion: URINARY BLADDER: TRANSITIONAL CELL CARCINOMA) 0/20 (0%), 0/20 (0%), 0%, not significant; (Dose [Inhibitor]: 1 G/L IN DRINKING WATER FOR LIFETIME (STUDY DURATION: LIFETIME), Strain/Sex: LEWIS/MALE, Target Tissue: Type of Lesion: URINARY BLADDER: TRANSITIONAL CELL PAPILLOMA) 0/20 (0%), 0/20 (0%), 0%, not significant; (Dose [Inhibitor]: 1 G/LITER IN DRINKING WATER FOR LIFETIME (STUDY DURATION: LIFETIME), Strain/Sex: DA/FEMALE, Target Tissue: Type of Lesion: KIDNEY: TUBULAR CELL ADENOMA) 0/40 (0%), 0/40 (0%), 0%, not significant; (Dose [Inhibitor]: 1 G/LITER IN DRINKING WATER FOR LIFETIME (STUDY DURATION: LIFETIME), Strain/Sex: DA/FEMALE, Target Tissue: Type of Lesion: KIDNEY: TUBULAR CELL CARCINOMA) 0/40 (0%), 0/40 (0%), 0%, not significant. Also, the “tumour outcome (control, treated, inhibition, significance)” value is 1/20 (5%), 0/20 (0%), 100%, not significant (Dose [Inhibitor]: 1 G/L IN DRINKING WATER FOR LIFETIME (STUDY DURATION: LIFETIME), Strain/Sex: DA/MALE, Target Tissue: Type of Lesion: KIDNEY: TUBULAR CELL ADENOMA); 6/20 (30%), 2/20 (40%), -33%, not significant (Dose [Inhibitor]: 1 G/L IN DRINKING WATER FOR LIFETIME (STUDY DURATION: LIFETIME), Strain/Sex: DA/MALE, Target Tissue: Type of Lesion: KIDNEY: TUBULAR CELL CARCINOMA); 2/20 (10%), 1/20 (5%), 50%, not significant (Dose [Inhibitor]: 1 G/L IN DRINKING WATER FOR LIFETIME (STUDY DURATION: LIFETIME), Strain/Sex: LEWIS/MALE, Target Tissue: Type of Lesion: KIDNEY: TUBULAR CELL CARCINOMA).
